Laboratory results from patent US7030145B2, “Pyridinyl derivatives for the treatment of depression” (Bristol-Myers Squibb Company, priority 2003, dated 2006).

How the values were obtained:
[1] = target: T1, cloned human CRF-R1 receptors (Homo sapiens, UniProt P34998); assay: CRF-R1 receptor binding assay (inhibition of 125I-ovine-CRF binding to cell membranes); parameters: key to activity (Ki class in the CRF assays): a: Ki≦100 nM; b: 100 nM<Ki≦500 nM; c: 500 nM<Ki≦5,000 nM; activity reported in percent inhibition at 10 μM; conditions: membranes of 293EBNA cells transfected with hCRFR1, class d = reported as percent inhibition at 10 μM, figures not given; for Ki: read-out: activity (Ki class in the CRF assays)
T1 construct: the coding region was amplifies by PCR from start to stop codons; expressed in transfected cells; membranes
T1 sequence (P34998 24-415): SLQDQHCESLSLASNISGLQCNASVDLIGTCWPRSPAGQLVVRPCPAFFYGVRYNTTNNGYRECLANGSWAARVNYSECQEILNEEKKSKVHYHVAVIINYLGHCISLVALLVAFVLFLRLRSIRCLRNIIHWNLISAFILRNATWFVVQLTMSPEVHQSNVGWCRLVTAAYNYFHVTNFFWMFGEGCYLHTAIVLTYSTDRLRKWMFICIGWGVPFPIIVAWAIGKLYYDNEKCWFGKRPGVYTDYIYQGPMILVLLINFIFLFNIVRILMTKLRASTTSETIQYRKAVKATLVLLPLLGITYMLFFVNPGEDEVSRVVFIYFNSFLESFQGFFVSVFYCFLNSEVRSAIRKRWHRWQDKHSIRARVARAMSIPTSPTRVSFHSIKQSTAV
Excerpt: The following is a description of the isolation of cell membranes containing cloned human CRF-R1 receptors for use in a standard binding assay as well as a description of the assay itself.
Messenger RNA was isolated from human hippocampus. […]. The mRNA was reverse transcribed using oligo (dt) 12–18 and the coding region was amplifies by PCR from start to stop codons. The resulting PCR fragment was cloned into the EcoRV site of pGEMV, from whence the insert was reclaimed using XhoI+XbaI and cloned into the XhoI+XbaI sites of vector pm3 as (which contains a CMV promoter, the SV′t′ splice and early poly A signals, an Eptein-Barr viral origin of replication, and a hygromycin selectable marker). The resulting expression vector, called phchCRFR was transfected in 293EBNA cells and cells retaining the episome were selected in the presence of […] hygromycin. Cells surviving 4 weeks of selection in hygromycin were pooled, adapted to growth in suspension and used to generate membranes for the binding assay described below. Individual aliquots containing approximately 1×10^8 of the suspended cells were then centrifuged to form a pellet and frozen. For the binding assay a frozen pellet described above containing 293EBNA cells transfected with hCRFR1 receptors is homogenized in 10 mL of ice cold tissue buffer (50 mM HEPES buffer pH 7.0, containing 10 MM MgCl2, 2 mM EGTA, 1 μg/mL apotinin, 1 μg/mL leupeptin and 1 μg/mL pepstatin). The homoginate is centrifuged at 40,000×g for 12 min and the resulting pellet rehomogenized in 10 mL of tissue buffer. After another centrifugation at 40,000×g for 12 min, the pellet is resuspended to a protein concentration of 360 μg/mL to be used in the assay.
Binding assays are performed in 96 well plates; each well having a 300 μL capacity. To each well is added 50 μL of test drug dilutions (final concentration of drugs range from 10^−10–10^−5 M), 100 μL of ^125I-ovine-CRF (^125I-o-CRF) (final concentration 150 pM) and 150 μL of the cell homoginate described above. Plates are then allowed to incubate at room temperature for 2 hours before filtering the incubate over GF/F filters (presoaked with 0.3% polyethyleneimine) using an appropriate cell harvester. Filters are rinsed 2 times with ice cold assay buffer before removing individual filters and assessing them for radioactivity on a gamma counter.
Curves of the inhibition of ^125I-o-CRF binding to cell membranes at various dilutions of test drug are analyzed by the iterative curve fitting program LIGAND [P. J. Munson and D. Rodbard, Anal. Biochem., 107:220 (1980), which provides Ki values for inhibition which are then used to assess biological activity. […]
Messenger RNA was isolated from human hippocampus. The mRNA was isolated from human hippocampus. The mRNA was reverse transcribed using oligo (dt) 12–18 and the coding region was amplifies by PCR from start to stop codons. The resulting PCR fragment was cloned into the EcoRV site of pGEMV, from whence the insert was reclaimed using XhoI+XbaI and cloned into the XhoI+XbaI sites of vector pm3 as (which contains a CMV promoter, the SV′t′ splice and early poly A signals, an Eptein-Barr viral origin of replication, and a hygromycin selectable marker). The resulting expression vector, called phchCRFR was transfected in 293EBNA cells and cells retaining the episome were selected in the presence of […] hygromycin. Cells surviving 4 weeks of selection in hygromycin were pooled, adapted to growth in suspension and used to generate membranes for the binding assay described below. […]
A frozen pellet described above containing 293EBNA cells transfected with hCRFR1 receptors or the rat frontal cortex tissue dissected from frozen rat brains was prepared as the source of membranes expressing CRF1 receptors used in binding assays. […]

Ki [1]	melting point	activity (Ki class in the CRF assays) [1]	Compound
100 to 500 nM	120 to 121 °C		COc1cc(COc2cccc(S(=O)(=O)c3ccc(C)nc3Nc3c(C)cc(C)cc3C)c2)cc(OC)c1 [Example 63, {3-[3-(3,5-Dimethoxybenzyloxy)-benzenesulfonyl]-6-methylpyridin-2-yl}-(2,4,6-trimethylphenyl)-amine]
	149 to 151 °C	d	COc1ccccc1COc1ccc(S(=O)(=O)c2ccc(C)nc2Nc2cc(OC)c(OC)cc2Cl)cc1 [Example 6, (2-Chloro-4,5-dimethoxyphenyl)-{3-[4-(2-methoxybenzyloxy)-benzenesulfonyl]-6-methylpyridin-2-yl}-amine]
100 to 500 nM	192 to 201 °C		Cc1cc(C)c(Nc2nc(C)ccc2S(=O)(=O)c2ccc(OCc3cc(Cl)nc(Cl)c3)cc2)c(C)c1 [Example 20, {3-[4-(2,6-Dichloropyridin-4-ylmethoxy)-benzenesulfonyl]-6-methylpyridin-2-yl}-(2,4,6-trimethylphenyl)-amine]
100 to 500 nM	111 to 113 °C		CCC(Oc1ccc(S(=O)(=O)c2ccc(C)nc2Nc2c(C)cc(C)cc2C)cc1)C(=O)OC (stereo not drawn) [Example 18, 2-{4-[6-Methyl-2-(2,4,6-trimethylphenylamino)-pyridine-3-sulfonyl]-phenoxy}-butyric acid methyl ester]
	68 to 70 °C	d	COc1ccccc1COc1ccc(S(=O)(=O)c2ccc(C)nc2Nc2cc(F)c(N(C)C)cc2Cl)cc1 [Example 3, 2-Chloro-5-fluoro-N^1-{3-[4-(2-methoxybenzyloxy)-benzenesulfonyl]-6-methylpyridin-2-yl}-N^4,N^4-dimethylbenzene-1,4-diamine]
100 to 500 nM	165 to 167 °C		COc1ccc(S(=O)(=O)c2ccc(C)nc2Nc2c(C)cc(C)cc2C)cc1 [Example 9, [3-(4-Methoxybenzenesulfonyl)-6-methylpyridin-2-yl]-(2,4,6-trimethylphenyl)-amine]
100 to 500 nM	208 to 210 °C		Cc1cc(C)c(Nc2nc(C)ccc2S(=O)(=O)c2ccc(OCc3ccc(C#N)cc3)cc2)c(C)c1 [Example 23, 4-{4-[6-Methyl-2-(2,4,6-trimethylphenylamino)-pyridine-3-sulfonyl]-phenoxymethyl}-benzonitrile]
≤ 100 nM	124 to 126 °C		COc1cccc(COc2ccc(S(=O)(=O)c3ccc(C)nc3Nc3c(C)cc(C)cc3C)cc2)c1 [Example 26, {3-[4-(3-Methoxybenzyloxy)-benzenesulfonyl]-6-methylpyridin-2-yl}-(2,4,6-trimethylphenyl)-amine]
100 to 500 nM	178 to 180 °C		Cc1cc(C)c(Nc2nc(C)ccc2S(=O)(=O)c2ccc(OCc3ccc(F)cc3)cc2)c(C)c1 [Example 22, {3-[4-(4-Fluorobenzyloxy)-benzenesulfonyl]-6-methylpyridin-2-yl}-(2,4,6-trimethylphenyl)-amine]
500 to 5000 nM	152 to 153 °C		Cc1cc(C)c(Nc2nc(C)ccc2S(=O)(=O)c2ccc(OCCCO)cc2)c(C)c1 [Example 16, 3-{4-[6-Methyl-2-(2,4,6-trimethylphenylamino)-pyridine-3-sulfonyl]-phenoxy}-propan-1-ol]
	100 to 102 °C	d	COc1ccccc1COc1ccc(S(=O)(=O)c2ccc(C)nc2Nc2ccc(S(C)(=O)=O)cc2Cl)cc1 [Example 7, (2-Chloro-4-methanesulfonylphenyl)-{3-[4-(2-methoxybenzyloxy)-benzenesulfonyl]-6-methylpyridin-2-yl}-amine]
100 to 500 nM	139 to 141 °C		Cc1cc(C)c(Nc2nc(C)ccc2S(=O)(=O)c2ccc(F)c(Cl)c2)c(C)c1 [Example 37, [3-(3-Chloro-4-fluorobenzenesulfonyl)-6-methylpyridin-2-yl]-(2,4,6-trimethylphenyl)-amine]
500 to 5000 nM	160 to 162 °C		Cc1cc(C)c(Nc2nc(C)ccc2S(=O)(=O)c2ccc(OCCCC#N)cc2)c(C)c1 [Example 14, 4-{4-[6-Methyl-2-(2,4,6-trimethylphenylamino)-pyridine-3-sulfonyl]-phenoxy}-butyronitrile]
100 to 500 nM	87 to 88 °C		COc1cccc(S(=O)(=O)c2ccc(C)nc2Nc2c(C)cc(C)cc2C)c1 [Example 56, [3-(3-Methoxybenzenesulfonyl)-6-methylpyridin-2-yl]-(2,4,6-trimethylphenyl)-amine]
100 to 500 nM	141 to 143 °C		COc1ccc(C(C)=O)cc1COc1ccc(S(=O)(=O)c2ccc(C)nc2Nc2c(C)cc(C)cc2C)cc1 [Example 35]
100 to 500 nM	200 to 201 °C		Cc1cc(C)c(Nc2nc(C)ccc2S(=O)(=O)c2ccc(OCc3csc(C)n3)cc2)c(C)c1 [Example 21, {6-Methyl-3-[4-(2-methylthiazol-4-ylmethoxy)-benzenesulfonyl]-pyridin-2-yl}-(2,4,6-trimethylphenyl)-amine]
≤ 100 nM	158 to 160 °C		Cc1cc(C)c(Nc2nc(C)ccc2S(=O)(=O)c2ccc(OCc3ccccc3)cc2)c(C)c1 [Example 11, [3-(4-Benzyloxybenzenesulfonyl)-6-methylpyridin-2-yl]-(2,4,6-trimethylphenyl)-amine]
≤ 100 nM	136 to 138 °C		Cc1cc(C)c(Nc2nc(C)ccc2S(=O)(=O)c2ccc(OCc3c(C)cccc3C)cc2)c(C)c1 [Example 36, {3-[4-(2,6-Dimethylbenzyloxy)-benzenesulfonyl]-6-methyl-pyridin-2-yl}-(2,4,6-trimethylphenyl)-amine]
	124 to 125 °C	d	COc1ccccc1COc1ccc(S(=O)(=O)c2ccc(C)nc2Nc2ccc(OC(F)F)cc2Cl)cc1 [Example 5, (2-Chloro-4-difluoromethoxyphenyl)-{3-[4-(2-methoxybenzyloxy)-benzenesulfonyl]-6-methylpyridin-2-yl}-amine]
≤ 100 nM	148 to 150 °C		COC(=O)c1cccc(COc2ccc(S(=O)(=O)c3ccc(C)nc3Nc3c(C)cc(C)cc3C)cc2)c1 [Example 25, 3-{4-[6-Methyl-2-(2,4,6-trimethylphenylamino)-pyridine-3-sulfonyl]-phenoxymethyl}-benzoic acid methyl ester]
≤ 100 nM	107 to 109 °C		COc1cc(COc2ccc(S(=O)(=O)c3ccc(C)nc3Nc3c(C)cc(C)cc3C)cc2)cc(OC)c1 [Example 30, {3-[4-(3,5-Dimethoxybenzyloxy)-benzenesulfonyl]-6-methyl-pyridin-2-yl}-(2,4,6-trimethylphenyl)-amine]
